Measurements taken from US11684614B2, “Formulations of hydroxypyridonate actinide/lanthanide decorporation agents” (priority 2017, dated 2023).
Values joined by “and” are separate entries in the source; they are usually repeats but may differ in a detail not shown here. Equal entries are not always repeated.

Assays:
[1] = Stability in gastric fluid; type: in vitro ADME
[2] = Distribution coefficient measurement; type: physicochemical; details: for Dow / Log(Dow): listed as 3,4,3-LI(1,2-HOPO)
[3] = Double-Sink PAMPA permeability assay with permeation enhancers (flux ratio); type: in vitro ADME; details: compared with reference compound Ranitidine
Experimental: The objective of the analytical study described in Part C of this report was to assess the feasibility of enhancing the permeability of the active pharmaceutical ingredient 3,4,3-L1(1,2-HOPO) using oral permeation enhancers. Evaluation was performed using an in vitro pK assay based on the Double-Sink™ PAMPA technology developed by pION, Inc.
The permeability enhancement study was performed in two stages. In the first stage (TABLE 10.1), 15 formulations were prepared and screened. The second stage (TABLE 10.2) was performed to refine the concentrations of the permeability enhancers that seemed to display permeability enhancement in the first screening. The screening conditions for both stages are listed below. The sample solutions were stored throughout the study in 20 mL clear scintillation glass vials with polypropylene cap and pulp foil liner, wrapped in aluminum foil.
• Test Solutions: Vehicles containing the permeation enhancers were prepared by weighing the adequate quantity of enhancer and dissolving it into 100 mL of purified water to reach the designated concentration. Test solutions were then prepared by weighing 10 mg of 3,4,3-L1(1,2-HOPO), dissolving it into 10 mL of each of the vehicles to reach a concentration of 1 mg/mL (purified water was used for the control solution). The final pH and clarity of each solution were recorded. […]

CYP2B6 = target: T1, CYP2B6 (Homo sapiens, UniProt P20813); test: CYP inhibition; type: in vitro ADME
T1 sequence (P20813 1-491): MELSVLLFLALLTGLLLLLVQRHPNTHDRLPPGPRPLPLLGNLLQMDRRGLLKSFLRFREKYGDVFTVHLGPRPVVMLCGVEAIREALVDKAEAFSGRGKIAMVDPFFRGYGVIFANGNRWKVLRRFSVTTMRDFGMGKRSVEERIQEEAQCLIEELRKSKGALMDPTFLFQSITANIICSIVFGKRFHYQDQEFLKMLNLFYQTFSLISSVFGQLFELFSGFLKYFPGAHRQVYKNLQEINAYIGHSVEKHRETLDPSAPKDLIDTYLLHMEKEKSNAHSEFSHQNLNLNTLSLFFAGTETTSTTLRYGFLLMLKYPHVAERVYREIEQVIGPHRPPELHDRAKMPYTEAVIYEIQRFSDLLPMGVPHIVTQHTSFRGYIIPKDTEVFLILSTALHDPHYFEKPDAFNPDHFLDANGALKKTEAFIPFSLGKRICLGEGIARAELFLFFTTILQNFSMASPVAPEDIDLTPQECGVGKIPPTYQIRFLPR

[4] = In vitro human liver microsome stability; type: in vitro ADME
CYP2C19 = CYP2C19 (Homo sapiens, UniProt P33261); test: CYP inhibition; type: in vitro ADME
Chain of CYP2C19 (P33261 whole entry): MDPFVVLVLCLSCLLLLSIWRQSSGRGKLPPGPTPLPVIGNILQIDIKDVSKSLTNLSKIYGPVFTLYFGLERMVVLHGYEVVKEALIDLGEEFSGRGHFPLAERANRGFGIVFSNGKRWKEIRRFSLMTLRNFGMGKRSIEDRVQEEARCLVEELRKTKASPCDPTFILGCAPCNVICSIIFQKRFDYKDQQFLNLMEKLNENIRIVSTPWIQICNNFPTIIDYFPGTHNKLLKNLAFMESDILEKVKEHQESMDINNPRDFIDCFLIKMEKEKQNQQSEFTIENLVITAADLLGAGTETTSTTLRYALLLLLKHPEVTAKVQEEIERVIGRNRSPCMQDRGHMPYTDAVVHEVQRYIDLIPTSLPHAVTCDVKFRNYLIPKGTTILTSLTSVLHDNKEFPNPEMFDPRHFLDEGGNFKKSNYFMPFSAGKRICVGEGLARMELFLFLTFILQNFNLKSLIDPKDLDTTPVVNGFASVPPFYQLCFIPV

[5] = Buffering Agent 1: 7.5 E−02 M HCl, pH 1.18, samples A11-A13
[6] = Buffering Agent 1: 7.5 E−02 M HCl, pH 1.20, samples B11-B13
[7] = Buffering Agent 2: 7.5 E−03 M HCl, pH 2.15, samples A11-A13
[8] = Buffering Agent 2: 7.5 E−03 M HCl, pH 2.16, samples B11-B13
[9] = Buffering Agent 3: 7.5 E−04 M HCl, pH 3.21, samples A31-A33
[10] = Buffering Agent 4: 1 E−02 M Acetic Acid, pH 4.19, samples A41-A43
[11] = Buffering Agent 5: 1 E−02 M Acetic Acid, pH 5.13, samples A51-A53
[12] = Buffering Agent 5: 1 E−02 M Acetic Acid, pH 5.20, samples B51-B53
[13] = Buffering Agent 6: 1 E−02 M MES, pH 6.30, samples A61-A63
[14] = Buffering Agent 7: 1 E−02 M HEPES, pH 6.75, samples A71-A73
[15] = Buffering Agent 8: 1 E−02 M HEPES, pH 7.42, samples A81-A83
[16] = Buffering Agent 9: 1 E−02 M HEPES, pH 8.00, samples A91-A93

## O=C(NCCCN(CCCCN(CCCNC(=O)c1cccc(=O)n1O)C(=O)c1cccc(=O)n1O)C(=O)c1cccc(=O)n1O)c1cccc(=O)n1O [3,4,3-L1(1,2-HOPO)]
[1]
  stability in gastric fluid: degraded slightly
[2]; [5]
  Dow: 0.122 and 0.115 and 0.112
  Log(Dow): −0.915 and −0.938 and −0.952
[2]; Buffering Agent 1: 7.5 E−02 M HCl, pH 1.18, series A
  Log(Dow), unlabelled summary row (mean of samples): −0.935
[2]; [6]
  Dow: 0.318 and 0.327 and 0.285
  Log(Dow): −0.497 and −0.485 and −0.545
[2]; Buffering Agent 1: 7.5 E−02 M HCl, pH 1.20, series B
  Log(Dow), unlabelled summary row (mean of samples): −0.509
[2]; [7]
  Dow: 0.093 and 0.105 and 0.110
  Log(Dow): −1.031 and −0.980 and −0.958
[2]; Buffering Agent 2: 7.5 E−03 M HCl, pH 2.15, series A
  Log(Dow), unlabelled summary row (mean of samples): −0.990
[2]; [8]
  Dow: 0.503 and 0.491 and 0.469
  Log(Dow): −0.299 and −0.309 and −0.329
[2]; Buffering Agent 2: 7.5 E−03 M HCl, pH 2.16, series B
  Log(Dow), unlabelled summary row (mean of samples): −0.312
[2]; Buffering Agent 3: 7.5 E−04 M HCl, pH 3.13, series B
  Log(Dow), unlabelled summary row (mean of samples): −1.499
[2]; [9]
  Dow: 0.180 and 0.170 and 0.184
  Log(Dow): −0.744 and −0.769 and −0.735
[2]; Buffering Agent 3: 7.5 E−04 M HCl, pH 3.21, series A
  Log(Dow), unlabelled summary row (mean of samples): −0.750
[2]; Buffering Agent 4: 1 E−02 M Acetic Acid, pH 4.00, series B
  Log(Dow), unlabelled summary row (mean of samples): −1.566
[2]; [10]
  Dow: 0.076 and 0.061 and 0.068
  Log(Dow): −1.119 and −1.218 and −1.166
[2]; Buffering Agent 4: 1 E−02 M Acetic Acid, pH 4.19, series A
  Log(Dow), unlabelled summary row (mean of samples): −1.168
[2]; [11]
  Dow: 0.044 and 0.027 and 0.050
  Log(Dow): −1.360 and −1.564 and −1.299
[2]; Buffering Agent 5: 1 E−02 M Acetic Acid, pH 5.13, series A
  Log(Dow), unlabelled summary row (mean of samples): −1.408
[2]; [12]
  Dow: 0.056 and 0.082 and 0.103
  Log(Dow): −1.251 and −1.086 and −0.989
[2]; Buffering Agent 5: 1 E−02 M Acetic Acid, pH 5.20, series B
  Log(Dow), unlabelled summary row (mean of samples): −1.109
[2]; Buffering Agent 6: 1 E−02 M MES, pH 6.15, samples B61-B63
  Log(Dow): −1.374 and −1.645
[2]; Buffering Agent 6: 1 E−02 M MES, pH 6.15, series B (B61 prints #NUM!)
  Log(Dow), unlabelled summary row (mean of samples): −1.510
[2]; [13]
  Dow: 0.064 and 0.077 and 0.082
  Log(Dow): −1.191 and −1.113 and −1.086
[2]; Buffering Agent 6: 1 E−02 M MES, pH 6.30, series A
  Log(Dow), unlabelled summary row (mean of samples): −1.130
[2]; [14]
  Dow: 0.150 and 0.120 and 0.105
  Log(Dow): −0.824 and −0.921 and −0.977
[2]; Buffering Agent 7: 1 E−02 M HEPES, pH 6.75, series A
  Log(Dow), unlabelled summary row (mean of samples): −0.908
[2]; Buffering Agent 7: 1 E−02 M HEPES, pH 6.83, series B
  Log(Dow), unlabelled summary row (mean of samples): −1.680
[2]; [15]
  Dow: 0.130 and 0.132 and 0.107
  Log(Dow): −0.885 and −0.879 and −0.970
[2]; Buffering Agent 8: 1 E−02 M HEPES, pH 7.42, series A
  Log(Dow), unlabelled summary row (mean of samples): −0.912
[2]; Buffering Agent 8: 1 E−02 M HEPES, pH 7.46, series B
  Log(Dow), unlabelled summary row (mean of samples): −1.173
[2]; [16]
  Dow: 0.110 and 0.074 and 0.132
  Log(Dow): −0.957 and −1.128 and −0.879
[2]; Buffering Agent 9: 1 E−02 M HEPES, pH 8.00, series A
  Log(Dow), unlabelled summary row (mean of samples): −0.988
[2]; Buffering Agent 9: 1 E−02 M HEPES, pH 8.00, series B
  Log(Dow), unlabelled summary row (mean of samples): −1.920
[3]
  permeability (PAMPA): very low permeability
CYP2B6
  inhibition of CYP2B6 activity: did not inhibit
[4]
  stability in human liver microsomes: relatively stable
CYP2C19
  inhibition of CYP2C19 activity: did not inhibit
